From patent US10966430B2, “Natural fungicide composition” (GRIFFITH FOODS INTERNATIONAL INC., priority 2013, dated 2021)

System: Mycosphaerella fijiensis
Experiment: Second field trials: in vitro fungicidal activity, length of germinated ascospores on water-agar
Format: cell-based
Settings: for % Inhibition: ascospores incubated 48 hours at 26° C. in darkness
Method: Additional field trials were conducted to evaluate the in vitro fungicidal activity of 14 composition embodiments in the treatment of Mycosphaerella fijiensis.
Culture media comprising 2% water-agar (Difco® Bacto® Agar) and 0.001, 0.01, 0.1, 1, 10, 100, and 1,000 mg/L of the active substance were each prepared in a petri dish for each composition. A separate culture media without any active substance was used as a control. For comparative fungicides F-11-01 to F-11-12 listed in Table 1 below, the active substance was the same as the composition as a whole.
Ascospores of Mycosphaerella fijiensis obtained from a banana plantation that had not been treated with any fungicides were discharged into each petri dish. After discharging the ascospores of Mycosphaerella fijiensis, each sample was incubated for 48 hours at 26° C. in complete darkness. After 48 hours of incubation, the length of 100 germinated ascospores at each concentration was measured.
After collecting the data, the average length of the germinated ascospores was calculated for each concentration. The average inhibition percentage was calculated for each sample fungicide at each concentration using the following formula:
where: • Lcontrol=average length of germinated ascospores of control sample • Lsample=average length of germinated ascospores of sample fungicide.
The average inhibition percentage was used to calculate EC50 for each sample fungicide. EC50 is the half maximal effective concentration, which refers to the concentration of sample fungicide that induces a response halfway between the baseline and maximum after a specified exposure time.

Substance: Polysorbate 80 [Fungicide F-11-09]
- % Inhibition (0.001 mg/L): 37.98%
- % Inhibition (0.01 mg/L): 42.6%
- % Inhibition (0.1 mg/L): 11.91%
- % Inhibition (1 mg/L): 31.87%
- % Inhibition (10 mg/L): 52.04%
- % Inhibition (100 mg/L): 46.24%
- Natural Log (natural log belonging to the EC50 column): 10.45
